Experimental data: patent US20060166867A1, “Novel conjugates of polysaccharides and uses thereof” (priority 2003, published 2006)
Where two headings read alike, the source gives them in different places.

Legend:
HIV-1 IIIB = test: microbe, parasite or virus in culture; format: cell-based; details: for inhibition activity (anti-HIV): in up to 50 μM concentrations
Method: (§1) Inhibition of HIV-1 cell replication was tested using the cMAGI assay, which is based on the ability of HIV-1 TAT to transactivate the expression of an integrated β-galactosidase reporter gene driven by the HIV-LTR (B. Chackeria et al., J. Virol., (1997) 71, 3932; Collins et al., Nat. Med. (2000) 6, 475). The β-galactosidase reporter is modified to remain localized in the nucleus where it can be detected with the X-gal (5-bromo-4-chloro-3indoyl-β-D-galactopyranoside) substrate as an intense nuclear stain within a few days of infection.
(§2) HIV-1 isolates were propagated by subculture in MT2 cells (Litovchick et al. (2001) supra). Aliquots of cell-free culture supernatants were used as viral inoculum. PAACs were dissolved in the RPMI 1640 medium. Cytotoxicity determinations were carried out in MT2 cells by trypan blue exclusion assay. Viral inhibition was determined by incubating MT2 or cMAGI HIV-1 reporter cells with 0.2-0.5 multiplicity of infection of HIV-1 wild type or resistant virus for 4 days at 37° C. in the presence or absence of various concentrations of pAACs. HIV-1 infection of cMAGI cells was determined by counting the number of HIV-1-infected cells (stained blue). The cytopathic effects of the viral infection of MT2 cells were also analyzed by microscopic assessment of syncytium formation.

in vitro = format: cell-based; details: human, read-out: Cytotoxicity
Method: Cytotoxicity of the various pAACs was determined using the trypan blue exclusion assay. In brief, a sample of the cell suspension was diluted 1:1 (v/v) with 0.4% trypan blue and the cells were counted using a hemocytometer. Results are expressed as the percentage of dead cells.
as §2

CXCR4 = molecular target: T1, CXCR4 (Homo sapiens, UniProt P61073); test: Competition with 12G5 mAb binding to CXCR4 on MT2 cells (flow cytometry); details: for median fluorescent intensity (MFI) of 12G5 mAb binding to MT2 cells: without compound 55.56, isotype control 4.0
T1 construct: incubated at 4° C. with anti-CXCR4 mAb, 12G5, conjugated to phycoerithrine (PE); endogenous in cells; host or cells: MT2 cells
T1 sequence (P61073 whole entry): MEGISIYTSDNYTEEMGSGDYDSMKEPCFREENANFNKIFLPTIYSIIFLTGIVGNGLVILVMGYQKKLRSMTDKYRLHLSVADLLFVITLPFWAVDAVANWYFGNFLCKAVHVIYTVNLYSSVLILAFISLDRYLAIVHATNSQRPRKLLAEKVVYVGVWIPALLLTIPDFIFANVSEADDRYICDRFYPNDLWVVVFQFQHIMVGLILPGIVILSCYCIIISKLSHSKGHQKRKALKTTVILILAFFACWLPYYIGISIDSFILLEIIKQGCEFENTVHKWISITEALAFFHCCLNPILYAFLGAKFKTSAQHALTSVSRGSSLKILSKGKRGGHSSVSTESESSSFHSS
Method: Interaction of pAACs and arginine peptides with CXCR4 coreceptor: Interactions of pAACs and arginine-peptides with CXCR4 were determined by flow cytometry (FACS-Scan, Becton Dickinson) as previously described (Litovich (2001) supra). In brief, 0.5×10^6 MT2 cells were washed with ice-cold PBS containing 0.1% sodium azide (wash buffer) and were incubated at 4° C. with anti-CXCR4 mAb, 12G5, conjugated to phycoerithrine (PE), in the absence or presence of different concentrations of pAACs and arginine peptides. After 30 minutes of incubation, the cells were washed with ice-cold wash buffer and fixed in PBS containing 1% paraformaldehyde. Non-specific fluorescence was assessed using an isotype control. For each sample 10,000 events were acquired. Data were analyzed and processed using CellQuest™ software (Becton Dickinson).

[1] = system: HIV-1 AZT resistant virus; format: cell-based; details: Table 4; read-out: EC50 AZT^Res
Method: as §1, §2

HIV-1 Ba-L = format: cell-based; details: Table 4
Method: as §1, §2

[2] = system: HIV-1 NeoR6 resistant virus; format: cell-based; details: read-out: EC50 NeoR6^Res; Table 4
Method: as §1, §2

[3] = system: HIV-1 Protease resistant virus; format: cell-based; details: Table 4; read-out: EC50 Protease^Res
Method: as §1, §2

[4] = system: HIV-1 clinical isolate Clade A; format: cell-based
Method: as §1, §2

[5] = system: HIV-1 clinical isolate Clade C; format: cell-based
Method: as §1, §2

[6] = system: HIV-1 wild-type and NeoR6 resistant isolates; details: cited from earlier work
[7] = Table 3, against HIV-1 IIIB virus, read-out: EC50
[8] = MT2 cells, Table 3, trypan blue exclusion
[9] = Table 4, tryphan blue exclusion assay for MT2 cells
[10] = Table 4, read-out: EC50 Clade A
[11] = Table 4, read-out: EC50 Clade C

N=C(N)NCCC[C@H](NC(=O)[C@H](CCCNC(=N)N)NC(=O)[C@H](CCCNC(=N)N)NC(=O)[C@H](CCCNC(=N)N)NC(=O)[C@H](CCCNC(=N)N)NC(=O)[C@@H](N)CCCNC(=N)N)C(=O)O [Compound 1, L-Arg-6mer-NH2]
EC50 (HIV-1 IIIB; [7]): 110 µM
inhibition activity (anti-HIV) (HIV-1 IIIB): no inhibition activity

N=C(N)NCCC[C@H](NC(=O)[C@H](CCCNC(=N)N)NC(=O)[C@H](CCCNC(=N)N)NC(=O)[C@H](CCCNC(=N)N)NC(=O)[C@H](CCCNC(=N)N)NC(=O)[C@@H](N)CCCNC(=N)N)C(=O)NC[C@H]1O[C@H](O[C@H]2[C@H](O)[C@@H](O)[C@H](N)C[C@@H]2N)[C@H](N)[C@@H](O)[C@@H]1O [Compound 2, L-Arg-6-mer-neamine]
EC50 (HIV-1 IIIB; [7]): 70 ± 10 µM
CC50 (in vitro; [8]): 210 µM
inhibition at 20 µM (CXCR4; read-out: % Inhibition of 12G5 mAb binding to CXCR4, 20 μM): 35.4%

N=C(N)NCCC[C@H](NC(=O)[C@H](CCCNC(=N)N)NC(=O)[C@H](CCCNC(=N)N)NC(=O)[C@H](CCCNC(=N)N)NC(=O)[C@H](CCCNC(=N)N)NC(=O)[C@@H](N)CCCNC(=N)N)C(=O)NC[C@@H]1O[C@H](O[C@H]2[C@@H](O)[C@H](O[C@@H]3[C@@H](O)[C@H](N)C[C@H](N)[C@H]3O[C@H]3O[C@H](CO)[C@@H](O)[C@H](O)[C@H]3N)O[C@@H]2CO)[C@H](N)[C@@H](O)[C@@H]1O [Compound 3, L-Arg-6-mer-paromomycin]
EC50 (HIV-1 IIIB; [7]): 31 ± 10 µM
CC50 (in vitro; [8]): 160 µM

N=C(N)NCCC[C@H](NC(=O)[C@H](CCCNC(=N)N)NC(=O)[C@H](CCCNC(=N)N)NC(=O)[C@H](CCCNC(=N)N)NC(=O)[C@H](CCCNC(=N)N)NC(=O)[C@H](CCCNC(=N)N)NC(=O)[C@H](CCCNC(=N)N)NC(=O)[C@H](CCCNC(=N)N)NC(=O)[C@@H](N)CCCNC(=N)N)C(=O)NC[C@H]1O[C@H](O[C@H]2[C@H](O)[C@@H](O)[C@H](N)C[C@@H]2N)[C@H](N)[C@@H](O)[C@@H]1O [Compound 6, L-Arg-9-mer-neamine]
EC50 (HIV-1 IIIB; [7]): 37.5 ± 2.5 µM
CC50 (in vitro; [8]): 175 µM
inhibition at 80 µM (CXCR4; read-out: % Inhibition of 12G5 mAb binding to CXCR4, 80 μM): 30.1%

N=C(N)NCCC[C@H](NC(=O)[C@H](CCCNC(=N)N)NC(=O)[C@H](CCCNC(=N)N)NC(=O)[C@H](CCCNC(=N)N)NC(=O)[C@H](CCCNC(=N)N)NC(=O)[C@H](CCCNC(=N)N)NC(=O)[C@H](CCCNC(=N)N)NC(=O)[C@H](CCCNC(=N)N)NC(=O)[C@@H](N)CCCNC(=N)N)C(=O)NC[C@@H]1O[C@H](O[C@H]2[C@@H](O)[C@H](O[C@@H]3[C@@H](O)[C@H](N)C[C@H](N)[C@H]3O[C@H]3O[C@H](CO)[C@@H](O)[C@H](O)[C@H]3N)O[C@@H]2CO)[C@H](N)[C@@H](O)[C@@H]1O [Compound 7, L-Arg-9-mer-paromomycin]
EC50 (HIV-1 IIIB; [7]): 31 ± 9 µM
CC50 (in vitro; [8]): 140 µM

CC(=O)N[C@H](CCCNC(=N)N)C(=O)N[C@H](CCCNC(=N)N)C(=O)N[C@H](CCCNC(=N)N)C(=O)N[C@H](CCCNC(=N)N)C(=O)N[C@H](CCCNC(=N)N)C(=O)N[C@H](CCCNC(=N)N)C(=O)O [Compound 9, D-Arg-6-mer-NHAc]
EC50 (HIV-1 IIIB; Table 4, read-out: EC50 IIIB): 5.8 ± 1.7 µM
EC50 [1]: 15.2 ± 6.2 µM
EC50 (HIV-1 Ba-L): > 50 µM
EC50 [2]: 6.8 ± 0.7 µM
EC50 [3]: 4.9 ± 1 µM
EC50 ([4]; clinical isolate Clade A): 8 ± 1 µM
EC50 ([5]; clinical isolate Clade C): 5.3 ± 0.3 µM
CC50 (in vitro; [9]): 170 µM
inhibition at 2 µM (CXCR4; 2 μM, read-out: % Inhibition of 12G5 mAb binding to CXCR4): 1.6%
inhibition at 10 µM (CXCR4; 10 μM, read-out: % Inhibition of 12G5 mAb binding to CXCR4): 70.9%

CC(=O)N[C@H](CCCNC(=N)N)C(=O)N[C@H](CCCNC(=N)N)C(=O)N[C@H](CCCNC(=N)N)C(=O)N[C@H](CCCNC(=N)N)C(=O)N[C@H](CCCNC(=N)N)C(=O)N[C@H](CCCNC(=N)N)C(=O)NC[C@H]1O[C@H](O[C@H]2[C@H](O)[C@@H](O)[C@H](N)C[C@@H]2N)[C@H](N)[C@@H](O)[C@@H]1O [Compound 10, D-Arg-6-mer-neamine]
EC50 (HIV-1 IIIB; Table 4, read-out: EC50 IIIB): 1.8 ± 0.1 µM
EC50 [1]: 7 ± 4 µM
EC50 (HIV-1 Ba-L): > 50 µM
EC50 [2]: 2.6 ± 1.2 µM
EC50 [3]: 2.2 ± 0.4 µM
EC50 [4, 10]: 3.2 ± 1.3 µM
EC50 [5, 11]: 1.7 ± 0.1 µM
CC50 (in vitro; [9]): 150 µM
% Inhibition of 12G5 mAb binding to CXCR4 (CXCR4; 2 μM): 91.1%
median fluorescent intensity (MFI) of 12G5 mAb binding to MT2 cells (CXCR4; 2 μM): 9.6
median fluorescent intensity (MFI) of 12G5 mAb binding to MT2 cells (CXCR4; 10 μM): 3.3
inhibition at 2 µM (CXCR4; read-out: % Inhibition of 12G5 mAb binding to CXCR4, 2 μM): 91%
inhibition at 10 µM (CXCR4; read-out: % Inhibition of 12G5 mAb binding to CXCR4, 10 μM): 100%

N=C(N)NCCCC(N)C(=O)NC(CCCNC(=N)N)C(=O)NC(CCCNC(=N)N)C(=O)NC(CCCNC(=N)N)C(=O)NC(CCCNC(=N)N)C(=O)NC(CCCNC(=N)N)C(=O)NC(CCCNC(=N)N)C(=O)NC(CCCNC(=N)N)C(=O)NC(CCCNC(=N)N)C(=O)NC[C@H]1O[C@H](O[C@H]2[C@H](O)[C@@H](O)[C@H](N)C[C@@H]2N)[C@H](N)[C@@H](O)[C@@H]1O (stereo partly drawn) [Compound 16, D/L-Arg-9-mer-neamine]
CC50 (in vitro; [8]): 160 µM

N=C(N)NCCC[C@H](NC(=O)[C@@H](N)CCCNC(=N)N)C(=O)NCC1OC(OC2C(N)CC(N)C(O)C2O)C(N)C(O)C1O (stereo partly drawn) [Compound 21, L-Arg-2-mer-neamine]
EC50 (HIV-1 IIIB; [7]): ~46 µM

NC[C@H]1O[C@H](O[C@H]2[C@H](O)[C@@H](O)[C@H](N)C[C@@H]2N)[C@H](N)[C@@H](O)[C@@H]1O [neamine, Neamine, reference compound]
inhibition activity (anti-HIV) (HIV-1 IIIB): no inhibition activity

D-Arg-6-mer-neomycin [Compound 11]
EC50 (HIV-1 IIIB; Table 4, read-out: EC50 IIIB): 2.1 ± 0.6 µM
EC50 [1]: 10.4 ± 4.1 µM
EC50 (HIV-1 Ba-L): > 50 µM
EC50 [2]: 5.3 ± 2.5 µM
EC50 [3]: 4 ± 1 µM
EC50 [4, 10]: 5.7 ± 2.8 µM
EC50 [5, 11]: 3 ± 0.8 µM
% Inhibition of 12G5 mAb binding to CXCR4 (CXCR4; 2 μM): 79%
% Inhibition of 12G5 mAb binding to CXCR4 (CXCR4; 2 μM, listed as r6-D-arginine-neomycin): 91.1%
% Inhibition of 12G5 mAb binding to CXCR4 (CXCR4; 10 μM): 99.3%

L-Arg-6-mer-neomycin [Compound 4]
EC50 (HIV-1 IIIB; [7]): 40 ± 12 µM

tri-arginine gentamycin C1 conjugate [Compound R3G]
times more resistant, NeoR6^res isolates than wild-type virus [6]: about 5 times
EC50 ([6]; wild-type and NeoR6 resistant isolates): 4.1 µM
